These results are taken from PubChem BioAssay (NCI).

Common to all, as to test: NCI-60 cell line screen, 48 h
Assay [1] has as its system NCI/ADR-RES ovarian.
Assay [2] concerns SK-MEL-28 melanoma.
Assay [3] concerns EKVX NSCLC.
Assay [4] has as its system LOX IMVI melanoma.
Assay [5] deals with SN12C renal.
Assay [6] deals with MDA-MB-435.
The test system of assay [7] is U251 CNS.
The test system of assay [8] is KM12 colon.
For assay [9], the system named is MDA-N.
For assay [10], the system named is T-47D breast.
The test system of assay [11] is OVCAR-4 ovarian.
Assay [12] has as its system UACC-62 melanoma.
Assay [13] has as its system NCI-H226 lung.

Where “and” joins values, the source holds several entries; their conditions need not be identical. Identical values can stand only once.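 Exposure lasted 48 hours, with cells grown in 96-well plates and compounds tested at five concentrations. GI50 = concentration required for 50% inhibition of growth. TGI marks complete inhibition of growth.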 Bounds are passed on as bounds.

`CCSc1nc(N)c2c(-c3ccc(OC)c(OC)c3)c3c(nc2n1)CCCC3`: the TGI in assay [1], in [2], in [3], in assay [4], in [5] and in [6] was over 100 µM each time. For the same compound, the TGI in [7], in [8], in assay [9], in assay [10], in assay [11] and in [12] was over 100 µM each time.
`CCC(=O)Nc1ccc(N=Cc2cccc(Oc3ccccc3)c2)cc1`: the TGI in assay [1], in [2], in assay [13], in assay [3], in assay [4] and in [5] was over 100 µM in each case. The TGI in [6], in assay [8], in [9], in [10], in [11] and in assay [12] was over 100 µM throughout.
As to `O=C1/C(=C/c2cccnc2)C(n2cccc2)c2c(Br)sc(Br)c21` (configuration not stated), the TGI in assay [1] is over 52 µM; in assay [2] it was 7.31 µM; in assay [13], over 100 µM; in assay [3] it was 4.1 µM; in [4] it was 3.89 µM; in assay [5], 14.2 µM. For the same compound, the TGI is 3.42 µM in [6]; 3.08 µM in [7]; 8.45 µM in assay [8]; 4.24 µM in assay [9]; 6.25 µM in assay [10]; 3.83 µM in [11]. In assay [12], the TGI stood at 4.49 µM.
Consider `CC1C(=O)OC2CC[N+]3(CC(=O)c4ccc(Br)cc4)CC=C(COC(=O)C(C)(O)C1(C)O)C23` (configuration not stated), for which the TGI in assay [1], in [2], in assay [13], in assay [3], in [4] and in assay [5] was over 375 µM in each case. The TGI in assay [7], in assay [8], in assay [11] and in assay [12] was over 375 µM throughout.
Regarding `N#C[S-].[Nd+3].c1cnc2c(c1)ccc1cccnc12.c1cnc2c(c1)ccc1cccnc12.c1cnc2c(c1)ccc1cccnc12`, the TGI in [2] is 32.1 µM; in [13], 5.91 µM; in assay [3], 18.7 µM; in assay [4], 13.1 µM; in assay [5] it was 14.2 µM; in [7], 12.4 µM. The TGI in [8] is 22.6 µM; in [11], 14.4 µM; in [12], 5.44 µM.
For the compound `Cc1cc(NC(=S)Nc2ccccc2)c(NC(=S)Nc2ccccc2)cc1C`, the TGI in assay [1] is 28.9 µM; in assay [2], over 100 µM; in assay [13], over 100 µM; in assay [3], over 100 µM; in [4] it was over 100 µM; in assay [5], over 100 µM. The TGI is over 63.4 µM in assay [7], over 100 µM in assay [8], over 100 µM in assay [11] and over 100 µM in assay [12].
As to `CC1=C(C)C(=O)O[C@@H]([C@](C)(O)[C@]2(O)CC[C@@]3(O)[C@@H]4C[C@H]5O[C@]56[C@@H](O)C=CC(=O)[C@]6(C)[C@H]4CC[C@]23C)C1`, the GI50 in [1] was 9.65 µM and 6.24 µM; in [2], 0.606 µM and 0.228 µM; in assay [3] it was 2.5 µM and 0.404 µM; in [7], 2.51 µM; in assay [8] it was 0.95 µM and 0.637 µM; in [11], 0.0878 µM and 0.43 µM. Also, in [12], the GI50 is 0.288 µM and 0.0848 µM. For the same compound, the TGI was 131 µM and 57.5 µM in [1]; 5.86 µM and 3.44 µM in assay [2]; 22 µM in assay [13]; 3.36 µM and 1.76 µM in [3]; 2.64 µM in assay [4]; 6.59 µM in assay [5]. Besides, the TGI was 6.71 µM and 6.54 µM in assay [7]; 6.73 µM and 4.57 µM in assay [8]; 3.08 µM and 1 µM in [11]; 3.41 µM and 3 µM in assay [12].
Take `COc1cc2c(cc1OCCCOc1cc(-c3ccc(F)cc3)nc(C)n1)N=C[C@@H]1CCCN1C2=O`: the TGI in [2] worked out at 44.1 µM; in assay [13], 30.5 µM; in [3], 39.3 µM; in assay [4], 28.3 µM; in assay [5], 32.3 µM; in assay [6], 28.5 µM. In addition, the TGI in assay [7] is 28.7 µM; in assay [8] it was 36.2 µM; in assay [10], over 100 µM; in assay [11], over 100 µM; in assay [12], 28.7 µM.
With `Nc1ccccc1CCCC(=O)O`, the TGI in [1], in [2], in [13], in assay [4], in [5] and in assay [6] was over 100 µM each time. Also, the TGI in [7], in [8], in assay [9], in assay [10], in assay [11] and in assay [12] was over 100 µM in each case.
As for `O=C(O)CNC(=O)CO/N=C1/C(c2c(O)[nH]c3ccccc23)=Nc2ccccc21`, the TGI in [1], in assay [2], in assay [13], in assay [3], in assay [4] and in assay [5] was over 100 µM each time. Further, the TGI in assay [6], in assay [7], in assay [8], in [9], in assay [10] and in [11] was over 100 µM throughout. This compound came in with a TGI in assay [12] of over 100 µM.
Turning to `Cc1ccc(CC(=O)Nc2ccc(NC(=O)/C=C/NC(=O)/C=C/c3ccc(-c4ccccc4)cc3)cc2C(=O)c2ccccc2)cc1`, the TGI in [1] is over 100 µM; in assay [2], 9 µM; in [13] it was 6.15 µM; in [3], 3.58 µM; in assay [4], 4.84 µM; in assay [5], 5.51 µM. Also, the TGI was determined as 10.8 µM in [6]; 4.35 µM in [7]; 14.6 µM in assay [8]; 6.61 µM in [9]; 18 µM in assay [10]; 3.41 µM in [11]. The same compound gave a TGI in [12] of 4.87 µM.
